Assay results published in patent publication US12391647B2, “Benzamide compound and preparation method, use, and pharmaceutical composition thereof” (INSTITUTE OF MATERIA MEDICA, CHINESE ACADEMY OF MEDICAL …, priority 2018, dated 2025).
Marks after values point to notes of the source that are not given here.

Legend:
[1] = system: human prostate cancer cell DU145; assay: MTT assay, survival rate of tumor cells (antiproliferative activity); assay type: cell-based; conditions: DU-145, 72 h, read-out: Antiproliferative activity against human prostate cancer cell DU145, IC50
Description: DU145 cells (human prostate cancer cells) in logarithmic growth phase were digested with 0.25% trypsin-EDTA to prepare single cell suspension, which was inoculated into 96-well plate overnight according to 1500 cells/well/100 μL, and fresh medium containing different concentrations of compounds to be tested and corresponding solvent control was added, and 100 μL (DMSO final concentration <0.1%) was added to each well, and the 96-well plate was further cultured at 37° C. for 72 h. 20 μL of freshly prepared PBS solution containing 5 mg/mL MTT was added to each well, and the 96-well plate was further cultured for 4 h. After the supernatant was discarded, 180 μL of DMSO was added to each well to dissolve the MTT formazan precipitate. After the 96-well plate was shaked and mixed by a micro oscillator, the optical density (OD) at the detection wavelength of 570 nm was measured. With DMSO-treated tumor cells as the control group, the inhibition rate on the growth of tumor cells of the compound to be tested was calculated from the following formula, and the IC50 was calculated according to the median-effect equation. Inhibition rate (%)=(average OD value of control group-average OD value of dosing group)/average OD value of control group×100%

STAT3 transcription = assay: STAT3 specific luciferase double reporter gene experiment in DU145 cells; assay type: cell-based, human; conditions: for STAT3 transcription inhibition activity: DU145, STAT3 specific luciferase double reporter; for IC50: Homo sapiens, DU-145, DU145 with high STAT3 expression, 24 h
Description: The luciferase plasmids STAT3-TA-Luc and pGMLR-TK were transiently co-transfected into DU145 cells by Lipofectamine 3000. After staying overnight, different concentrations of compounds to be tested were added and cultured for 24 hours. The supernatant was discarded, and the residue was washed twice with PBS, and then 20 μL of lysis solution was added to shake and lyse for 5 min. The supernatant was transferred to a 96-well Costar whiteplate, and 70 μL of Dual-Glo luciferase substrate solution was added, and the relative fluorescence intensity of firefly luciferase was detected, and then 70 μL of Stop-Glo substrate solution was added, and the relative fluorescence intensity of sea kidney luciferase was detected, the normalized value was obtained, and the inhibition rate and IC50 value were calculated.

p-STAT3 (Tyr705) = assay: Western blotting of p-STAT3 expression in DU145 cells; assay type: cell-based, human
Description: DU145 cells treated for 16 h with different concentrations of examples 12, 23, 33 and 34 and DU145 cells in control group were collected and washed twice with pre-cooled PBS. After appropriate amount of RIPA lysate (50 mM Tris-HCl, 1 mM EDTA, 1% Triton X-100, 150 mM NaCl, 0.1% SDS, 1 mM NaF, Na3VO4, protease inhibitor, pH 7.4) was added to lyse for 1 h on ice, the reaction mixture was centrifuged at 4° C., 12,000 rpm for 20 min, and then the supernatant was collected for protein quantification and boiled for denaturation. Equal amount of protein was taken for 10% SDS-PAGE electrophoresis. The specific antibodies of p-STAT3 (Tyr705) and STAT3 were used as primary antibody, which was incubated overnight at 4° C. The corresponding HRP-labeled secondary antibody was used, incubated at room temperature for 2 h, and washed. ECL chemiluminescence substrate reaction solution was added to develop in gel imaging system, and the image was saved. (3-actin was used as internal reference.

[2] = system: xenograft tumor of human prostate cancer DU145; assay: Xenotransplantation efficacy study in nude mice; assay type: in vivo; conditions: for Tumor growth inhibition: oral, DU145 xenograft; for inhibitory effect on the growth of xenograft tumor: subcutaneous DU145 xenograft
Description: Tumor cells of human prostate cancer DU145 were collected under aseptic conditions, and the cell density was adjusted to 1×10^6 cells/mL with sterilized normal saline, and then 0.2 mL of which was inoculated subcutaneously in the axillary back of nude mice. When the tumor grew to 1 cm in diameter, it was taken out under aseptic conditions, cut into tumor blocks with the size of 1 mm×1 mm, and inoculated subcutaneously in the axillary back of nude mice. Two weeks later, after the tumor grew to 100˜300 mm^3, the animals were randomly divided into groups and began to be administered (recorded as day 0). The compound to be tested is administered orally. The animals were weighed twice a week and the length and width of tumor were measured with vernier caliper. After the experiment, the nude mice were dislocated and killed, and the tumor tissues were stripped, weighed and photographed. Finally, the tumor inhibition rate was calculated, and the anti-tumor effect was evaluated by the tumor inhibition rate. The results are shown in tables 3 and 4 and FIGS. 2 and 3.
The tumor volume is calculated according to the following formula:
Tumor volume=(a×b^2)/2, where a and b represent the length and width of tumor respectively.
The tumor growth inhibition percentage is calculated according to the following formula: tumor growth inhibition (%)=(1−T/C)×100, T is the tumor volume of group of the compound to be tested, and C is the tumor volume of the solvent control group.

Structure (SMILES)	IC50 [1]	STAT3 transcription inhibition activity (STAT3 transcription)	IC50 (STAT3 transcription)	other results
Cc1ccc(S(=O)(=O)Nc2cc(C(=O)NCc3cccnc3)ccc2C)cc1 [Example 1, 4-methyl-3-((4-methylphenyl)sulfonamido)-N-(pyridin-3-ylmethyl) benzamide]	120 ± 30 nM	obvious STAT3 transcription inhibition activity	7000 ± 1300 nM	inhibitory activity on STAT3 phosphorylation (p-STAT3 (Tyr705); DU145, 1 μM concentration): obvious inhibitory activity; Tumor growth inhibition ([2]; 10 mg/kg × 7 times): 58.8*** %; Tumor growth inhibition ([2]; 20 mg/kg × 7 times): 62.7*** %; Tumor growth inhibition ([2]; 40 mg/kg × 7 times): 73.5*** %; inhibitory effect on the growth of xenograft tumor [2]: significant inhibitory effects
CCc1ccc(C(=O)NCc2cccnc2)cc1NS(=O)(=O)c1ccc(C)cc1 [Example 6, 4-ethyl-3-((4-methylphenyl)sulfonamido)-N-(pyridin-3-ylmethyl)benzamide]	860 ± 80 nM	obvious STAT3 transcription inhibition activity	9700 ± 1300 nM	–
Cc1ccc(S(=O)(=O)Nc2cc(F)cc(C(=O)NCc3cccnc3)c2)cc1 [Example 9, 3-fluoro-5-((4-methylphenyl)sulfonamido)-N-(pyridin-3-ylmethyl)benzamide]	900 ± 20 nM	obvious STAT3 transcription inhibition activity	6200 ± 300 nM	–
CCc1ccc(S(=O)(=O)Nc2cc(C(=O)NCc3cccnc3)ccc2C)cc1 [Example 12, 3-((4-ethylphenyl)sulfonamido)-4-methyl-N-(pyridin-3-ylmethyl)benzamide]	40 ± 10 nM	obvious STAT3 transcription inhibition activity	1000 nM	inhibitory activity on STAT3 phosphorylation (p-STAT3 (Tyr705); DU145, 0.5 μM concentration): obvious inhibitory activity; Tumor growth inhibition ([2]; 20 mg/kg × 14 times): 40.4%; Tumor growth inhibition ([2]; 40 mg/kg × 11 times): 79.7*** %; inhibitory effect on the growth of xenograft tumor [2]: significant inhibitory effects
COc1ccc(S(=O)(=O)Nc2cc(C(=O)NCc3cccnc3)ccc2C)cc1 [Example 13, 3-((4-methoxyphenyl)sulfonamido)-4-methyl-N-(pyridin-3-ylmethyl)benzamide]	180 ± 80 nM	obvious STAT3 transcription inhibition activity	10000 ± 2100 nM	–
Cc1ccc(S(=O)(=O)Nc2cc(C(=O)NCc3cccnc3)ccc2C)c(C)c1 [Example 17, 3-((2,4-dimethylphenyl)sulfonamido)-4-methyl-N-(pyridinylmethyl)benzamide]	500 ± 40 nM	–	8200 ± 20 nM	–
Cc1ccc(C(=O)NCc2cccnc2)cc1NS(=O)(=O)c1ccc(F)cc1 [Example 20, 3-((4-fluorophenyl)sulfonamido)-4-methyl-N-(pyridin-3-ylmethyl)benzamide]	3470 ± 1220 nM	obvious STAT3 transcription inhibition activity	15000 ± 1400 nM	–
Cc1ccc(C(=O)NCc2cccnc2)cc1NS(=O)(=O)c1ccc(C2CC2)cc1 [Example 23, 3-((4-cyclopropylphenyl)sulfonamido)-4-methyl-N-(pyridin-3-ylmethyl)benzamide]	50 ± 8 nM	obvious STAT3 transcription inhibition activity	1000 nM	inhibitory activity on STAT3 phosphorylation (p-STAT3 (Tyr705); DU145, 0.5 μM concentration): obvious inhibitory activity
Cc1ccc(S(=O)(=O)Nc2cc(C(=O)NCc3cccnc3)ccc2C)s1 [Example 30, 4-methyl-3-((5-methylthiophene)-2-sulfonamido)-N-(pyridin-3-ylmethyl)benzamide]	1200 ± 30 nM	obvious STAT3 transcription inhibition activity	17500 ± 300 nM	–
Cc1ccc(S(=O)(=O)Nc2cc(C(=O)NCc3ccc(C)nc3)ccc2C)cc1 [Example 33, 4-methyl-3-((4-methylphenyl)sulfonamido)-N-((6-methylpyridin-3-yl)methyl)benzamide]	8 ± 1 nM	obvious STAT3 transcription inhibition activity	500 ± 120 nM	inhibitory activity on STAT3 phosphorylation (p-STAT3 (Tyr705); DU145, 0.1 μM concentration): obvious inhibitory activity; Tumor growth inhibition ([2]; 20 mg/kg × 6 times): 63.0** %; Tumor growth inhibition ([2]; 40 mg/kg × 5 times): 80.0** %; inhibitory effect on the growth of xenograft tumor [2]: significant inhibitory effects
COc1ccc(CNC(=O)c2ccc(C)c(NS(=O)(=O)c3ccc(C)cc3)c2)cn1 [Example 34, N-((6-methoxypyridin-3-yl)methyl)-4-methyl-3-((4-methylphenyl)sulfonamido)benzamide]	6 ± 2 nM	obvious STAT3 transcription inhibition activity	800 ± 270 nM	inhibitory activity on STAT3 phosphorylation (p-STAT3 (Tyr705); DU145, 0.1 μM concentration): obvious inhibitory activity
Cc1ccc(S(=O)(=O)Nc2cc(C(=O)NCc3ccc(C(F)(F)F)nc3)ccc2C)cc1 [Example 35, 4-methyl-3-((4-methylphenyl)sulfonamido)-N-((6-(trifluoromethyl)pyridin-3-yl)methyl)benzamide]	200 ± 70 nM	obvious STAT3 transcription inhibition activity	8000 nM	–
